Results published in patent US3939266A, “Substituted sulfonylacetamido cephalosporins” (SmithKline Corporation, priority 1974, dated 1976).
In brackets after ≈: the same amount, converted by molar mass. Read-outs that look alike come from different tables or passages of the source.

Key:
Type in all cases: cell-based
[1] = tested on: S. aureus SK 23390; test: MIC against S. aureus SK 23390; details: Staphylococcus aureus, SK23390
[2] = tested on: Kleb. pneumo. SK 4200; test: MIC against Kleb. pneumo. SK 4200
[3] = tested on: Strep. faecalis HH 34358; test: MIC against Strep. faecalis HH 34358; details: Enterococcus faecalis, HH34358
[4] = tested on: Entero. aerog. ATCH 13048; test: MIC against Entero. aerog. ATCH 13048
[5] = tested on: S. aureus HH 127; test: MIC against S. aureus HH 127; details: Staphylococcus aureus, HH127
[6] = tested on: E. coli SK 12140; test: MIC against E. coli SK 12140; details: Escherichia coli, SK12140; E. coli SK 12140; read-out: MIC
[7] = tested on: Pseudo. sp. HH 63; test: MIC against Pseudo. sp. HH 63
[8] = tested on: Entero. cloaca PaSL 969; test: MIC against Entero. cloaca PaSL 969
[9] = tested on: Salmonella ATCC 12176; test: MIC against Salmonella ATCC 12176; details: ATCC12176
[10] = tested on: Shigella HH 112; test: MIC against Shigella HH 112; details: HH112
[11] = tested on: Kleb. pneumo. SK 1200; test: MIC against Kleb. pneumo. SK 1200
[12] = tested on: Serra. marc. ATCC 13880; test: MIC against Serra. marc. ATCC 13880
[13] = tested on: Strep. pyog. C 203; test: MIC against Strep. pyog. C 203
[14] = tested on: E. coli HH 33779; test: MIC against E. coli HH 33779; details: Escherichia coli, HH33779
[15] = tested on: S. villaluz; test: MIC against S. villaluz
[16] = Salmonella ATCC 12176, read-out: MIC

Row | Compound | MIC [1] [µg/mL] | MIC [2] [µg/mL] | MIC [3] [µg/mL] | MIC [4] [µg/mL] | MIC [5] [µg/mL] | MIC [6] [µg/mL] | MIC [7] [µg/mL] | MIC [8] [µg/mL] | MIC [9, 16] [µg/mL] | MIC ([10]; Shigella HH 112, read-out: MIC) [µg/mL] | MIC [11] [µg/mL] | MIC [12] [µg/mL] | MIC [13] [µg/mL] | MIC [14] [µg/mL] | MIC [15] [µg/mL] | MIC ([9]; Salmonella) [µg/mL] | MIC ([10]; Shigella) [µg/mL]
1 | CC(=O)OCC1=C(C(=O)O)N2C(=O)C(NC(=O)CS(N)(=O)=O)C2SC1 (stereo not shown) [Compound 59393, 7-Aminosulfonylacetamidocephalosporanic acid] | 1.6 (≈ 4.07 µM) | 25 (≈ 63.5 µM) | 50 (≈ 127 µM) | 200 (≈ 508 µM) | 1.6 (≈ 4.07 µM) | 50 (≈ 127 µM) | > 200 | 100 (≈ 254 µM) | 12.5 (≈ 31.8 µM) | 25 (≈ 63.5 µM) | 25 (≈ 63.5 µM) | > 200 | 0.1 (≈ 0.254 µM) | 50 (≈ 127 µM) | – | – | –
2 | CC1=C(C(=O)O)N2C(=O)C(NC(=O)CS(C)(=O)=O)[C@H]2SC1 (stereo partly shown) [Compound 59454, 7-Methylsulfonylacetamido-3-methyl-3-cephem-4-carboxylic acid] | 25 (≈ 74.8 µM) | > 200 | > 200 | > 200 | 25 (≈ 74.8 µM) | > 200 | > 200 | > 200 | > 200 | > 200 | > 200 | > 200 | 0.4 (≈ 1.2 µM) | > 200 | > 200 | – | –
3 | Cn1cnnc1SCC1=C(C(=O)O)N2C(=O)C(NC(=O)CS(C)(=O)=O)C2SC1 (stereo not shown) [Compound 59758] | 1.6 (≈ 3.58 µM) | 6.3 (≈ 14.1 µM) | 200 (≈ 447 µM) | > 200 | 3.1 (≈ 6.93 µM) | 6.3 (≈ 14.1 µM) | > 200 | – | – | – | 6.3 (≈ 14.1 µM) | > 200 | 0.1 (≈ 0.223 µM) | 12.5 (≈ 27.9 µM) | 50 (≈ 112 µM) | 3.1 (≈ 6.93 µM) | 0.1 (≈ 0.223 µM)
4 | Cc1nnc(SCC2=C(C(=O)O)N3C(=O)C(NC(=O)CS(=O)(=O)c4ccccc4)[C@H]3SC2)s1 (stereo partly shown) [Compound 57360, 7-Phenylsulfonylacetamido-3-(2-methyl-1,3,4-thiadiazol-5-ylthiomethyl)-3-cephem-4-carboxylic acid] | 0.4 (≈ 0.76 µM) | 25 (≈ 47.5 µM) | 25 (≈ 47.5 µM) | > 200 | 0.8 (≈ 1.52 µM) | 25 (≈ 47.5 µM) | > 200 | > 200 | 25 (≈ 47.5 µM) | 25 (≈ 47.5 µM) | 12.5 (≈ 23.7 µM) | > 200 | 0.1 (≈ 0.19 µM) | 100 (≈ 190 µM) | – | – | –
5 | CCS(=O)(=O)CC(=O)NC1C(=O)N2C(C(=O)O)=C(COC(C)=O)CSC12 (stereo not shown) [Compound 59623, 7-Ethylsulfonylacetamidocephalosporanic acid] | 0.8 (≈ 1.97 µM) | 6.3 (≈ 15.5 µM) | 100 (≈ 246 µM) | 200 (≈ 492 µM) | 0.8 (≈ 1.97 µM) | 25 (≈ 61.5 µM) | > 200 | – | 3.1 (≈ 7.63 µM) | 25 (≈ 61.5 µM) | 6.3 (≈ 15.5 µM) | > 200 | 0.1 (≈ 0.246 µM) | 50 (≈ 123 µM) | 100 (≈ 246 µM) | – | –
6 | Cn1c(SCC2=C(C(=O)O)N3C(=O)C(NC(=O)CS(C)(=O)=O)C3SC2)n[nH]c1=O (stereo not shown) [Compound 59857] | 1.6 (≈ 3.45 µM) | 6.3 (≈ 13.6 µM) | 100 (≈ 216 µM) | > 200 | 1.6 (≈ 3.45 µM) | 25 (≈ 53.9 µM) | > 200 | – | 3.1 (≈ 6.69 µM) | 25 (≈ 53.9 µM) | 6.3 (≈ 13.6 µM) | > 200 | 0.2 (≈ 0.431 µM) | 50 (≈ 108 µM) | 25 (≈ 53.9 µM) | – | –
